# Assay results published in patent US20110081315A1, “NOVEL MACROCYCLIC INHIBITORS OF HEPATITIS C VIRUS REPLICATION” (INTERMUNE, INC., priority 2009, published 2011).
# Columns and labels:
# [1] = system: hepatitis C replicon; assay: hepatitis C replicon EC50 assay; format: cell-based; settings: Hepatitis C virus; hepatitis C replicon; read-out: EC50
# Excerpt: (§1) NS3-NS4 inhibition activity can be determined using known assay methods. For example, NS3/NS4 complexes may be formed and inhibitory concentrations of test compounds determined as described in U.S. Patent Application Publication Number 2007/0054842 paragraph numbers 1497-1509, which is incorporated herein by reference in its entirety. Similarly, hepatitis C replicon EC50 may be determined using known assay methods such as described in U.S. Patent Application Publication Number 2007/0054842 paragraph numbers 1510-1515, which is incorporated herein by reference in its entirety. Assays may be conducted at ambient temperature (23° C.) in assay buffer containing 50 mM Tris-HCl, pH 7.5, 15% glycerol, 0.6 mM Lauryldimethylamine Oxide (LDAO), 25 μM NS4A peptide, and 10 mM Dithiothreitol (DTT).
# [2] = molecular target: NS3/NS4 complexes (Hepatitis C virus genotype 1a, UniProt P27958); assay: NS3/NS4 inhibition assay (IC50); format: biochemical; settings: NS3/NS4 activity; 23° C., 25 μM NS4A peptide
# Sequence of NS3/NS4 complexes (P27958 1027-1657, one chain of several): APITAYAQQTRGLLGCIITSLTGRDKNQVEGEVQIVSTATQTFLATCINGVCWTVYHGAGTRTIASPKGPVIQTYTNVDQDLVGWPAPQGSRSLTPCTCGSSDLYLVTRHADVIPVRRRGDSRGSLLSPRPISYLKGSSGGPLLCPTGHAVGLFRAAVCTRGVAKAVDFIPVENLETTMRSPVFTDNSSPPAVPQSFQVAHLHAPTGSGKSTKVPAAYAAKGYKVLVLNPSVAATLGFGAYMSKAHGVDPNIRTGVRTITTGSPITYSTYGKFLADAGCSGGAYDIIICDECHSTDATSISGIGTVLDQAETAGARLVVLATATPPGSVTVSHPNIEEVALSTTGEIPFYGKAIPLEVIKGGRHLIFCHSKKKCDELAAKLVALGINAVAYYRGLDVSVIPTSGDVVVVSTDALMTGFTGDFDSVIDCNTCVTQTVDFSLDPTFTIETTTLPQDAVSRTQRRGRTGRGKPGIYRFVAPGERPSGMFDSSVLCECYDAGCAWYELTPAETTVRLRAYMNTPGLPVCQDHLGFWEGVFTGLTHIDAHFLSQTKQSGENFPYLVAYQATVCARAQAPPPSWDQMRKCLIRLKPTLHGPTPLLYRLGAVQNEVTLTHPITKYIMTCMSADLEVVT
# Excerpt: as §1
SMILES,EC50 [1] [nM],IC50 [2] [nM]
CC(C)n1c(O[C@@H]2C[C@H]3C(=O)N[C@]4(C(=O)NS(=O)(=O)C5(C)CC5)C[C@H]4/C=C\CCCCC[C@H](Nc4ccccc4)C(=O)N3C2)nc2c(-c3ccc(F)cc3)cccc21 [Compound 238],10 to 100,< 10
CC(C)n1c(O[C@@H]2C[C@H]3C(=O)N[C@]4(C(=O)NS(=O)(=O)C5(C)CC5)C[C@H]4/C=C\CCCCC[C@H](Nc4ccccc4)C(=O)N3C2)nc2c(-c3cccc(F)c3)cccc21 [Compound 239],10 to 100,< 10
CC(C)n1c(O[C@@H]2C[C@H]3C(=O)N[C@]4(C(=O)NS(=O)(=O)C5(C)CC5)C[C@H]4/C=C\CCCCC[C@H](Nc4ccccc4)C(=O)N3C2)nc2c(-c3ccc(C#N)cc3)cccc21 [Compound 240],10 to 100,< 10
CC(C)n1c(O[C@@H]2C[C@H]3C(=O)N[C@]4(C(=O)NS(=O)(=O)C5(C)CC5)C[C@H]4/C=C\CCCCC[C@H](Nc4ccccc4)C(=O)N3C2)nc2c(-c3cccc(C#N)c3)cccc21 [Compound 241],10 to 100,< 10
CC(C)n1c(O[C@@H]2C[C@H]3C(=O)N[C@]4(C(=O)NS(=O)(=O)C5(C)CC5)C[C@H]4/C=C\CCCCC[C@H](Nc4ccccc4)C(=O)N3C2)nc2c(-c3ccccc3F)cccc21 [Compound 242],10 to 100,< 10
CC(C)n1c(O[C@@H]2C[C@H]3C(=O)N[C@]4(C(=O)NS(=O)(=O)C5(C)CC5)C[C@H]4/C=C\CCCCC[C@H](Nc4ccccc4)C(=O)N3C2)nc2c(-c3ccc(F)c(F)c3)cccc21 [Compound 243],> 100,< 10
COc1cccc(-c2cccc3c2nc(O[C@@H]2C[C@H]4C(=O)N[C@]5(C(=O)NS(=O)(=O)C6(C)CC6)C[C@H]5/C=C\CCCCC[C@H](Nc5ccccc5)C(=O)N4C2)n3C(C)C)c1 [Compound 244],10 to 100,< 10
Cc1cc(F)cc(-c2cccc3c2nc(O[C@@H]2C[C@H]4C(=O)N[C@]5(C(=O)NS(=O)(=O)C6(C)CC6)C[C@H]5/C=C\CCCCC[C@H](Nc5ccccc5)C(=O)N4C2)n3C(C)C)c1 [Compound 245],> 100,< 10
CC(C)n1c(O[C@@H]2C[C@H]3C(=O)N[C@]4(C(=O)NS(=O)(=O)C5(C)CC5)C[C@H]4/C=C\CCCCC[C@H](Nc4ccccc4)C(=O)N3C2)nc2c(-c3ccc(F)c(C(F)(F)F)c3)cccc21 [Compound 246],> 100,< 10
CC(C)n1c(O[C@@H]2C[C@H]3C(=O)N[C@]4(C(=O)NS(=O)(=O)C5(C)CC5)C[C@H]4/C=C\CCCCC[C@H](Nc4ccccc4)C(=O)N3C2)nc2c(-c3cccc(OC(F)(F)F)c3)cccc21 [Compound 247],> 100,< 10
CC(C)n1c(O[C@@H]2C[C@H]3C(=O)N[C@]4(C(=O)NS(=O)(=O)C5(C)CC5)C[C@H]4/C=C\CCCCC[C@H](Nc4ccccc4)C(=O)N3C2)nc2c(-c3cccc(C(=O)N(C)C)c3)cccc21 [Compound 248],10 to 100,< 10
CC(C)n1c(O[C@@H]2C[C@H]3C(=O)N[C@]4(C(=O)NS(=O)(=O)C5(C)CC5)C[C@H]4/C=C\CCCCC[C@H](Nc4ccccc4)C(=O)N3C2)nc2c(-c3ccc(OC(F)(F)F)cc3)cccc21 [Compound 249],> 100,< 10
Cc1ccccc1-c1cccc2c1nc(O[C@@H]1C[C@H]3C(=O)N[C@]4(C(=O)NS(=O)(=O)C5(C)CC5)C[C@H]4/C=C\CCCCC[C@H](Nc4ccccc4)C(=O)N3C1)n2C(C)C [Compound 250],> 100,< 10
CC(C)n1c(O[C@@H]2C[C@H]3C(=O)N[C@]4(C(=O)NS(=O)(=O)C5(C)CC5)C[C@H]4/C=C\CCCCC[C@H](Nc4ccccc4)C(=O)N3C2)nc2c(-c3cccc(C(F)(F)F)c3)cccc21 [Compound 251],> 100,< 10
CC(C)n1c(O[C@@H]2C[C@H]3C(=O)N[C@]4(C(=O)NS(=O)(=O)C5(C)CC5)C[C@H]4/C=C\CCCCC[C@H](Nc4ccccc4)C(=O)N3C2)nc2c(-c3ccoc3)cccc21 [Compound 252],10 to 100,< 10
CC(C)n1c(O[C@@H]2C[C@H]3C(=O)N[C@]4(C(=O)NS(=O)(=O)N(C)C)C[C@H]4/C=C\CCCCC[C@H](NC(=O)OC(C)(C)C)C(=O)N3C2)nc2c(-c3ccccc3F)cccc21 [Compound 261],10 to 100,< 10
CC(C)n1c(O[C@@H]2C[C@H]3C(=O)N[C@]4(C(=O)NS(=O)(=O)N(C)C)C[C@H]4/C=C\CCCCC[C@H](NC(=O)OC(C)(C)C)C(=O)N3C2)nc2cc(-c3ccccc3)ccc21 [Compound 262],10 to 100,< 10
CC(C)n1c(O[C@@H]2C[C@H]3C(=O)N[C@]4(C(=O)NS(=O)(=O)C5(C)CC5)C[C@H]4/C=C\CCCCC[C@H](Nc4ccccc4)C(=O)N3C2)nc2c(Cl)cccc21 [Compound 263],10 to 100,< 10

SMILES,EC50 [1] [nM],IC50 [2] [nM]
CC(C)n1c(O[C@@H]2C[C@H]3C(=O)N[C@]4(C(=O)NS(=O)(=O)N(C)C)C[C@H]4/C=C\CCCCC[C@H](NC(=O)OC(C)(C)C)C(=O)N3C2)nc2c(Cl)cccc21 [Compound 264],< 10,< 10
CCc1cccc2c1nc(O[C@@H]1C[C@H]3C(=O)N[C@]4(C(=O)NS(=O)(=O)C5(C)CC5)C[C@H]4/C=C\CCCCC[C@H](Nc4ccccc4)C(=O)N3C1)n2C(C)C [Compound 265],10 to 100,< 10
CCc1cccc2c1nc(O[C@@H]1C[C@H]3C(=O)N[C@]4(C(=O)NS(=O)(=O)N(C)C)C[C@H]4/C=C\CCCCC[C@H](NC(=O)OC(C)(C)C)C(=O)N3C1)n2C(C)C [Compound 266],< 10,< 10
CC(C)n1c(O[C@@H]2C[C@H]3C(=O)N[C@]4(C(=O)NS(=O)(=O)C5(C)CC5)C[C@H]4/C=C\CCCCC[C@H](Nc4ccccc4)C(=O)N3C2)nc2c(C(=O)O)cccc21 [Compound 267],> 100,< 10
CC(C)n1c(O[C@@H]2C[C@H]3C(=O)N[C@]4(C(=O)NS(=O)(=O)C5(C)CC5)C[C@H]4/C=C\CCCCC[C@H](Nc4ccccc4)C(=O)N3C2)nc2c(C(N)=O)cccc21 [Compound 268],10 to 100,< 10
CNC(=O)c1cccc2c1nc(O[C@@H]1C[C@H]3C(=O)N[C@]4(C(=O)NS(=O)(=O)C5(C)CC5)C[C@H]4/C=C\CCCCC[C@H](Nc4ccccc4)C(=O)N3C1)n2C(C)C [Compound 269],10 to 100,< 10
CC(C)n1c(O[C@@H]2C[C@H]3C(=O)N[C@]4(C(=O)NS(=O)(=O)C5(C)CC5)C[C@H]4/C=C\CCCCC[C@H](Nc4ccccc4)C(=O)N3C2)nc2c(C(=O)N(C)C)cccc21 [Compound 270],> 100,< 10
CCNC(=O)c1cccc2c1nc(O[C@@H]1C[C@H]3C(=O)N[C@]4(C(=O)NS(=O)(=O)C5(C)CC5)C[C@H]4/C=C\CCCCC[C@H](Nc4ccccc4)C(=O)N3C1)n2C(C)C [Compound 271],10 to 100,< 10
CC(C)NC(=O)c1cccc2c1nc(O[C@@H]1C[C@H]3C(=O)N[C@]4(C(=O)NS(=O)(=O)C5(C)CC5)C[C@H]4/C=C\CCCCC[C@H](Nc4ccccc4)C(=O)N3C1)n2C(C)C [Compound 272],10 to 100,< 10
CC(C)n1c(O[C@@H]2C[C@H]3C(=O)N[C@]4(C(=O)NS(=O)(=O)C5(C)CC5)C[C@H]4/C=C\CCCCC[C@H](Nc4ccccc4)C(=O)N3C2)nc2c(C(=O)Nc3ccccc3)cccc21 [Compound 273],10 to 100,< 10
CC(C)n1c(O[C@@H]2C[C@H]3C(=O)N[C@]4(C(=O)NS(=O)(=O)C5(C)CC5)C[C@H]4/C=C\CCCCC[C@H](Nc4ccccc4)C(=O)N3C2)nc2c(C(=O)NCc3ccccc3)cccc21 [Compound 274],10 to 100,< 10
CC(C)n1c(O[C@@H]2C[C@H]3C(=O)N[C@]4(C(=O)NS(=O)(=O)C5(C)CC5)C[C@H]4/C=C\CCCCC[C@H](Nc4ccccc4)C(=O)N3C2)nc2c(C(=O)NCCc3ccccc3)cccc21 [Compound 275],10 to 100,< 10
CC(C)n1c(O[C@@H]2C[C@H]3C(=O)N[C@]4(C(=O)NS(=O)(=O)N(C)C)C[C@H]4/C=C\CCCCC[C@H](NC(=O)OC(C)(C)C)C(=O)N3C2)nc2c(C(=O)O)cccc21 [Compound 276],> 100,< 10
CC(C)n1c(O[C@@H]2C[C@H]3C(=O)N[C@]4(C(=O)NS(=O)(=O)N(C)C)C[C@H]4/C=C\CCCCC[C@H](NC(=O)OC(C)(C)C)C(=O)N3C2)nc2c(C(N)=O)cccc21 [Compound 277],< 10,< 10
CNC(=O)c1cccc2c1nc(O[C@@H]1C[C@H]3C(=O)N[C@]4(C(=O)NS(=O)(=O)N(C)C)C[C@H]4/C=C\CCCCC[C@H](NC(=O)OC(C)(C)C)C(=O)N3C1)n2C(C)C [Compound 278],10 to 100,< 10
CC(C)n1c(O[C@@H]2C[C@H]3C(=O)N[C@]4(C(=O)NS(=O)(=O)N(C)C)C[C@H]4/C=C\CCCCC[C@H](NC(=O)OC(C)(C)C)C(=O)N3C2)nc2c(C(=O)N(C)C)cccc21 [Compound 279],> 100,< 10
CCNC(=O)c1cccc2c1nc(O[C@@H]1C[C@H]3C(=O)N[C@]4(C(=O)NS(=O)(=O)N(C)C)C[C@H]4/C=C\CCCCC[C@H](NC(=O)OC(C)(C)C)C(=O)N3C1)n2C(C)C [Compound 280],< 10,< 10
CC(C)NC(=O)c1cccc2c1nc(O[C@@H]1C[C@H]3C(=O)N[C@]4(C(=O)NS(=O)(=O)N(C)C)C[C@H]4/C=C\CCCCC[C@H](NC(=O)OC(C)(C)C)C(=O)N3C1)n2C(C)C [Compound 281],< 10,< 10
